Results taken from ChEMBL document CHEMBL5137020, “Electrostatic Complementarity in Structure-Based Drug Design” (J Med Chem, 2022).

Legend:
[1] = biological target: Procathepsin L (Homo sapiens, UniProt P07711); test: Inhibition of human Cathepsin L
[2] = biological target: Cathepsin S (Homo sapiens, UniProt P25774); test: Inhibition of Cathepsin S (unknown origin)
[3] = biological target: T1, Cathepsin K (Homo sapiens, UniProt P43235); test: Inhibition of Cathepsin K (unknown origin)
T1 sequence (P43235 whole entry): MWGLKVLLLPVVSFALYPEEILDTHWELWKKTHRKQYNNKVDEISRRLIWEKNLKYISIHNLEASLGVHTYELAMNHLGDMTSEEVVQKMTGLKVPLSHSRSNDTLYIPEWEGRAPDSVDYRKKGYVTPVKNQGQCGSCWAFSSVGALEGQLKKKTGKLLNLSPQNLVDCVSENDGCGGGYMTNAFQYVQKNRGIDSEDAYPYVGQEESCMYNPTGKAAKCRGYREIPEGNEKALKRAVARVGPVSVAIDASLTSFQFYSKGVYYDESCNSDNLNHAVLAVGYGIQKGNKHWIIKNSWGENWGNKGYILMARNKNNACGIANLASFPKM

[4] = organism: Homo sapiens; test: Inhibition of cIAP BIR3 domain (unknown origin) at 495 uM relative to control
[5] = organism: Homo sapiens; test: Inhibition of cIAP BIR3 domain (unknown origin) at 1000 uM relative to control

Chain of Cathepsin S (P25774 whole entry): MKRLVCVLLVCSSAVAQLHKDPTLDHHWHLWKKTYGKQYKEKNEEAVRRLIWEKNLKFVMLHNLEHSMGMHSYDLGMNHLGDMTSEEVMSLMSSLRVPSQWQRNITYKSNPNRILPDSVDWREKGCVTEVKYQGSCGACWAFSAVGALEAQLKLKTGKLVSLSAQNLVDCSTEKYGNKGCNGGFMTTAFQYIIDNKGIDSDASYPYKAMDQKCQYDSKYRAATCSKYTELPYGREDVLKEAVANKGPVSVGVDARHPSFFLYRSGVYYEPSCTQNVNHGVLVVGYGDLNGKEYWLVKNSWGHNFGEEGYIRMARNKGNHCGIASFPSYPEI
Chain of Procathepsin L (P07711 whole entry): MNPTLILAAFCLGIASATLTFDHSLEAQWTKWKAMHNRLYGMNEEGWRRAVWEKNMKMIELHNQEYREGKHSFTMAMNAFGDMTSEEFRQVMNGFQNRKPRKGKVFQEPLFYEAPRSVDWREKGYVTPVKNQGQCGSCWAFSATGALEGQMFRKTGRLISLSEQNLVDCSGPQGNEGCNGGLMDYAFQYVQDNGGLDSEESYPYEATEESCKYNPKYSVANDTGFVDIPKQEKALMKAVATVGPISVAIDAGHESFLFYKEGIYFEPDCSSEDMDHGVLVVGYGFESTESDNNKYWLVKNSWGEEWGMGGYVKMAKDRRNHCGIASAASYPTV

Compound	IC50 [1] [nM]	IC50 [2] [nM]	IC50 [3] [nM]	inhibition [4] [%]	inhibition [5] [%]
N#CC1(NC(=O)[C@@H]2C[C@@H](S(=O)(=O)c3ccccc3Cl)CN2C(=O)C2(c3ncc(Br)cc3F)CNC2)CC1	5	1	2000		
COc1ccc(S(=O)(=O)[C@@H]2C[C@@H](C(=O)NC3(C#N)CC3)N(C(=O)C3(c4ccc(Cl)cn4)CNC3)C2)c(Cl)c1	36	1.4	6500		
COc1ccc(S(=O)(=O)[C@@H]2C[C@@H](C(=O)NC3(C#N)CC3)N(C(=O)C3(c4ccc(Cl)cn4)CC3)C2)c(Cl)c1			11000		
C[C@@H]1CN(CC(=O)N2CCc3ccccc32)CCN1				42	
C[C@@H]1CN(CC(=O)N2CCc3ccc(N)cc32)CCN1					8
